PubChem BioAssay AID248 (DTP/NCI, 2004)
Values joined by “and” are separate entries in the source; they are usually repeats but may differ in a detail not shown here. Equal entries are not always repeated. Inconclusive results and toxic doses are left out. Rule as the data show it: active = T/C of 150% or more; inactive = T/C below 125%.

Test system: L1210 leukemia ip in BDF1 mice, survival T/C
Test: NCI In Vivo Anticancer Drug Screen. Data for tumor model L1210 Leukemia (intraperitoneal) in B6D2F1 (BDF1) mice
Settings: endpoint: mean survival time, higher = longer survival
Protocol: The antitumor activity of compounds was measured in mice bearing transplantable tumors. Survival or tumor size were measured and the results are expressed as the measurement made in the treated group (T) divided by the measurement made in the vehicle treated control group (C). The tumor model used in this assay is L1210 Leukemia (intraperitoneal) in B6D2F1 (BDF1) mice

[1] = dose: 100.0 mg/kg/injection, schedule: Q01DX009 (ip), vehicle: Klucel (hydroxypropylcellulose) (HPC)
[2] = dose: 200.0 mg/kg/injection, schedule: Q01DX009 (ip), vehicle: Klucel (hydroxypropylcellulose) (HPC)
[3] = dose: 400.0 mg/kg/injection, schedule: Q01DX009 (ip), vehicle: Klucel (hydroxypropylcellulose) (HPC)
[4] = dose: 100.0 mg/kg/injection, schedule: Q04DX003 (ip), vehicle: saline with Tween-80
[5] = dose: 200.0 mg/kg/injection, schedule: Q04DX003 (ip), vehicle: saline with Tween-80
[6] = dose: 400.0 mg/kg/injection, schedule: Q04DX003 (ip), vehicle: saline with Tween-80
[7] = dose: 100.0 mg/kg/injection, schedule: Q04DX002 (ip), vehicle: Klucel (hydroxypropylcellulose) (HPC)
[8] = dose: 100.0 mg/kg/injection, schedule: Q04DX003 (ip), vehicle: Klucel (hydroxypropylcellulose) (HPC)
[9] = dose: 200.0 mg/kg/injection, schedule: Q04DX003 (ip), vehicle: Klucel (hydroxypropylcellulose) (HPC)
[10] = dose: 400.0 mg/kg/injection, schedule: Q04DX003 (ip), vehicle: Klucel (hydroxypropylcellulose) (HPC)
[11] = dose: 100.0 mg/kg/injection, schedule: Q01DX009 (ip), vehicle: saline with Tween-80
[12] = dose: 200.0 mg/kg/injection, schedule: Q01DX009 (ip), vehicle: saline with Tween-80
[13] = dose: 100.0 mg/kg/injection, schedule: Q01DX001 (ip), vehicle: carboxymethylcellulose (CMC)
[14] = dose: 100.0 mg/kg/injection, schedule: Q01DX009 (ip), vehicle: gum acacia
[15] = dose: 100.0 mg/kg/injection, schedule: Q04DX003 (ip), vehicle: gum acacia
[16] = dose: 200.0 mg/kg/injection, schedule: Q04DX003 (ip), vehicle: gum acacia
[17] = dose: 400.0 mg/kg/injection, schedule: Q04DX003 (ip), vehicle: gum acacia
[18] = dose: 100.0 mg/kg/injection, schedule: Q01DX001 (ip), vehicle: saline

Measured: T/C

COc1ccc([N+](=O)[O-])cc1NC(=O)Nc1ccc(F)c([N+](=O)[O-])c1
inactive: [1] 98 % of control | [2] 95 % of control | [3] 95 % of control

C=C(Br)CNC(=O)Nc1ccccc1
inactive: [4] 98 % of control | [5] 95 % of control | [6] 102 % of control

O=C(c1ccc(Cl)cc1)N1CCC(CCCc2ccccc2)CC1
inactive: [7] 96 % of control | dose: 200.0 mg/kg/injection, schedule: Q04DX002 (ip), vehicle: Klucel (hydroxypropylcellulose) (HPC) 99 % of control | dose: 400.0 mg/kg/injection, schedule: Q04DX002 (ip), vehicle: Klucel (hydroxypropylcellulose) (HPC) 96 % of control

CC(=O)c1ccc(N=Nc2ccc(N(C)C)cc2)cc1
inactive: dose: 100.0 mg/kg/injection, schedule: Q01DX009 (ip), vehicle: carboxymethylcellulose (CMC) 100 % of control and 110 % of control | dose: 100.0 mg/kg/injection, schedule: Q04DX002 (ip), vehicle: carboxymethylcellulose (CMC) 100 % of control | dose: 100.0 mg/kg/injection, schedule: Q04DX003 (ip), vehicle: carboxymethylcellulose (CMC) 100 % of control | dose: 200.0 mg/kg/injection, schedule: Q01DX009 (ip), vehicle: carboxymethylcellulose (CMC) 98 % of control and 102 % of control | dose: 200.0 mg/kg/injection, schedule: Q04DX002 (ip), vehicle: carboxymethylcellulose (CMC) 93 % of control | dose: 200.0 mg/kg/injection, schedule: Q04DX003 (ip), vehicle: carboxymethylcellulose (CMC) 101 % of control | dose: 400.0 mg/kg/injection, schedule: Q01DX009 (ip), vehicle: carboxymethylcellulose (CMC) 95 % of control and 90 % of control | dose: 400.0 mg/kg/injection, schedule: Q04DX002 (ip), vehicle: carboxymethylcellulose (CMC) 88 % of control | dose: 400.0 mg/kg/injection, schedule: Q04DX003 (ip), vehicle: carboxymethylcellulose (CMC) 101 % of control

CCCCC(=O)c1ccc(OC)cc1
inactive: [1] 100 % of control | [8] 96 % of control | [2] 105 % of control | [9] 102 % of control | [3] 102 % of control | [10] 93 % of control

CCOC1(OCC)CS(=O)(=O)C1Cl (stereo not drawn)
inactive: dose: 50.0 mg/kg/injection, schedule: Q01DX001 (ip), vehicle: saline with Tween-80 107 % of control | dose: 100.0 mg/kg/injection, schedule: Q01DX001 (ip), vehicle: saline with Tween-80 98 % of control | dose: 200.0 mg/kg/injection, schedule: Q01DX001 (ip), vehicle: saline with Tween-80 98 % of control

CCCOP(=S)(NCCOC)OCCC
inactive: [11] 97 % of control | [12] 100 % of control | dose: 400.0 mg/kg/injection, schedule: Q01DX009 (ip), vehicle: saline with Tween-80 89 % of control

Cc1cccc(NC(=O)NCCCl)c1C
inactive: [13] 91 % of control | dose: 200.0 mg/kg/injection, schedule: Q01DX001 (ip), vehicle: carboxymethylcellulose (CMC) 91 % of control | dose: 400.0 mg/kg/injection, schedule: Q01DX001 (ip), vehicle: carboxymethylcellulose (CMC) 93 % of control

CCOC(=O)c1ccc(NC(=O)c2cccc(Cl)c2)cc1
inactive: [7] 94 % of control

c1ccc2c(c1)Nc1ccccc1[As]2C1CCCCC1
inactive: dose: 12.5 mg/kg/injection, schedule: Q04DX002 (ip), vehicle: saline with Tween-80 99 % of control | dose: 25.0 mg/kg/injection, schedule: Q04DX002 (ip), vehicle: saline with Tween-80 99 % of control | dose: 50.0 mg/kg/injection, schedule: Q04DX002 (ip), vehicle: saline with Tween-80 101 % of control

CCOC(=O)C(C(=O)OCC)c1cc(NC(=O)c2ccccc2)ccc1NC(=O)c1ccccc1
inactive: [4] 98 % of control | [5] 95 % of control | [6] 95 % of control

CC1(C)C2CCC(CCOC(=O)COc3ccc(Cl)cc3Cl)C1C2 (stereo not drawn)
inactive: [11] 104 % of control | [12] 94 % of control

CN(NC(=O)CC(=O)NN(C)C(=S)c1ccccc1)C(=S)c1ccccc1
inactive: dose: 25.0 mg/kg/injection, schedule: Q01DX009 (ip), vehicle: gum acacia 109 % of control | dose: 50.0 mg/kg/injection, schedule: Q01DX009 (ip), vehicle: gum acacia 104 % of control | [14] 100 % of control and 92 % of control | [15] 90 % of control | [16] 97 % of control | [17] 92 % of control

CN1CCc2cc3c(cc2C(=O)Cc2ccc4c(c2C1)OCO4)OCO3
inactive: dose: 25.0 mg/kg/injection, schedule: Q04DX003 (ip), vehicle: saline with Tween-80 103 % of control | dose: 50.0 mg/kg/injection, schedule: Q04DX003 (ip), vehicle: saline with Tween-80 97 % of control | [13] 100 % of control | [4] 102 % of control

O=C(Nc1ccccc1)Nc1ccccc1
inactive: dose: 50.0 mg/kg/injection, schedule: Q01DX009 (ip), vehicle: saline with Tween-80 96 % of control | [18] 97 % of control | [11] 91 % of control | [8] 90 % of control | dose: 200.0 mg/kg/injection, schedule: Q01DX001 (ip), vehicle: saline 92 % of control | [12] 103 % of control | [9] 95 % of control | dose: 400.0 mg/kg/injection, schedule: Q01DX001 (ip), vehicle: saline 94 % of control | [10] 96 % of control

CC(=O)Nc1ccc(Oc2ccccc2)cc1
inactive: dose: 50.0 mg/kg/injection, schedule: Q01DX009 (ip), vehicle: Klucel (hydroxypropylcellulose) (HPC) 102 % of control | [1] 101 % of control | [8] 95 % of control and 101 % of control | [2] 106 % of control | [9] 97 % of control and 100 % of control | [10] 102 % of control

NC(=O)C(Cl)Cl
inactive: [4] 113 % of control | [5] 103 % of control | [6] 94 % of control

N=C(N)SC(c1ccccc1)c1ccccc1
inactive: dose: 25.0 mg/kg/injection, schedule: Q01DX001 (ip), vehicle: Klucel (hydroxypropylcellulose) (HPC) 97 % of control | dose: 50.0 mg/kg/injection, schedule: Q01DX001 (ip), vehicle: Klucel (hydroxypropylcellulose) (HPC) 104 % of control | dose: 100.0 mg/kg/injection, schedule: Q01DX001 (ip), vehicle: Klucel (hydroxypropylcellulose) (HPC) 101 % of control | [18] 98 % of control

N#C/C(=C\c1ccc2c(c1)CCC2)C(N)=O
inactive: [4] 105 % of control | [5] 95 % of control | [6] 95 % of control

C1=Cc2ccccc2C(c2ccccc2)S1 (stereo not drawn)
inactive: dose: 100.0 mg/kg/injection, schedule: Q04DX002 (ip), vehicle: saline 103 % of control | dose: 200.0 mg/kg/injection, schedule: Q04DX002 (ip), vehicle: saline 98 % of control | dose: 400.0 mg/kg/injection, schedule: Q04DX002 (ip), vehicle: saline 103 % of control

CCOP(=O)(Cc1ccc(N(CCI)CCI)cc1)OCC
inactive: dose: 75.0 mg/kg/injection, schedule: Q01DX001 (ip), vehicle: saline 116 % of control | dose: 150.0 mg/kg/injection, schedule: Q01DX001 (ip), vehicle: saline 116 % of control

CN(C)Cc1ccccc1COC(=O)c1ccc(Cl)cc1
inactive: dose: 75.0 mg/kg/injection, schedule: Q04DX002 (ip), vehicle: saline 102 % of control | dose: 150.0 mg/kg/injection, schedule: Q04DX002 (ip), vehicle: saline 94 % of control | dose: 300.0 mg/kg/injection, schedule: Q04DX002 (ip), vehicle: saline 96 % of control

Cc1cc(=O)[nH]c(N/N=C/c2ccccc2)n1
inactive: [14] 88 % of control | [15] 93 % of control | [16] 97 % of control | dose: 400.0 mg/kg/injection, schedule: Q01DX009 (ip), vehicle: gum acacia 91 % of control | [17] 93 % of control

C=C(C)C#CC(O)(C(=O)OCC)C1CCCC1 (stereo not drawn)
inactive: dose: 100.0 mg/kg/injection, schedule: Q01DX001 (ip), vehicle: other 100 % of control | dose: 200.0 mg/kg/injection, schedule: Q01DX001 (ip), vehicle: other 93 % of control | dose: 400.0 mg/kg/injection, schedule: Q01DX001 (ip), vehicle: other 93 % of control
